Measurements taken from patent publication US9427433B2, “Methods and compositions for enhancing fertility and/or inhibiting pregnancy failure and restoring glucose tolerance” (Queen's University at Kingston, priority 2011, dated 2016).

How the values were obtained:
Type in all cases: in vivo, mouse
[1] = test system: uteri of diabetic NOD mice; assay: Uterodome maturation (scanning electron microscopy) and uterine LIF Western blot
Method: Using ice-cold sterile glass Dounce-tissue homogenizer, uterine samples collected from virgin and pregnant normoglycemic and diabetic NOD mice were homogenized in 3 volumes of the provided 1× homogenization buffer [Cytosolic and Nuclear Extraction Buffer Kit (Biovision Inc., CA, USA)] as per the manufacturer's instructions. Homogenized samples were centrifuged at 4° C. for 5 minutes at 16,000 g. Supernatants, referred to as cytosolic extracts, were immediately transferred into a clean pre-chilled tube kept on ice. Extraction of nuclear proteins from the remaining insoluble (pellet) fractions followed using ice-cold Nuclear Extraction Buffer Mix according to the supplier's instructions. Protein content of the extracted cytosolic and nuclear fractions was determined by Bradford assay. Extracted protein samples were aliquoted and stored at −80° C. for further analyses.
Mouse uterine cytosolic and nuclear proteins were resolved on 6 or 8% (w/v) Tris-SDS denaturing polyacrylamide gels in 1× sample loading buffer (150 mM sodium chloride, 1.0% Triton X-100 and 50 mM Tris, pH 8.0). Urea (8M) was added to the Tris-based SDS-PAGE for the detection of MUC1. […] Background-corrected intensities of Western blot protein bands on scanned films were processed using Image J. Data were expressed as means±SEM. GAPDH (detected as a band of approximately 37 kDa) was used as an internal loading control. […]

[2] = test system: uterine cytokines (IFN-γ, TNFα, IL16, IL12 family and others); assay: Cytokine multiplex profiling in uteri at peri-implantation
Text: In all untreated or vehicle-treated diabetic mice, an aberrant over-expression of IFN-γ, TNFα and IL16 accounted for the immune-cytotoxicity related implantation failure in these mice.

[3] = test system: NOD, NZO and DIO mice; assay: Still births, malformations and live births of near-term pups
Text: FIGS. 13A through 13G show results of short term administration of tacrolimus reducing the rates of stillbirths and malformations associated with the diabetic gestation and restoration of normal term pregnancy with high rate of live births in the treated diabetic and obese mice. Numbers and external morphological features of near term (Gd.16.5) pups delivered to tacrolimus-treated versus those delivered to vehicle-treated diabetic and their normoglycemic control mice are depicted in FIGS. 13A through 13C, respectively. Fetal viability rates and external features of pups delivered to diabetic and obese mice with those of the tacrolimus-treated obese and type 2 diabetic mice are depicted in FIGS. 13D and 13E, respectively. Graph bars of FIGS. 13F and 13G display figure statistics.
The successful use of tacrolimus in reducing still birth rates and preventing fetal malformations in the diabetic and obese mice is supportive of the etiological role for IFN-γ in the pathophysiology of fetal loss in diabetes and obese subjects. FIG. 13 provides a comparison between the external morphological features and liver versus still birth rates in near-term (Gd.16.5) pups delivered to tacrolimus-treated NOD (FIG. 13A) versus vehicle-treated diabetic NOD (FIG. 13B) and their normoglycemic control mice (FIG. 13C). […]

[4] = test system: pregnant diabetic mice; assay: Fetal weight and intrauterine growth restriction (IUGR)
Text: FIGS. 14A and 14B show representative fetal weights (FIG. 14A) and percent of dams with intrauterine growth restricted (IUGR) pups (FIG. 14B) as measured on day 18.5 of pregnancy in the tacrolimus-treated diabetic mice versus vehicle-treated diabetic dams and those normoglycemic control cohorts. Whiskers in FIG. 14A represent the 10th and 90th percentiles of fetal body weight. Pups with weights below the 10th percentile of the normoglycemic control were considered intrauterine growth restricted (IUGR) as indicated by the shaded region. […] Numbers in brackets in FIG. 14A represents number of pups examined. “n” denotes number of dams. p<0.05.

[5] = test system: grossly obese and glucose intolerant NZO female mice; assay: Weight loss in grossly obese mice; conditions: 0.1 mg/kg every other day for four weeks; vs vehicle, p<0.05
Method: Data shown are mean±SEM of changes in body mass in mice administered tacrolimus (0.1 mg/kg every other day) for four weeks starting at week 16 (N=10/group). Statistical difference between groups was measured by one-way ANOVA at 95% confidence.
For studies on a grossly obese state, mice were maintained on the 60% high fat diet for 24 weeks starting at 7 weeks of age and designated as being type II diabetic according to methods described above.

## C=CC[C@@H]1/C=C(\C)C[C@H](C)C[C@H](OC)[C@H]2O[C@@](O)(C(=O)C(=O)N3CCCC[C@H]3C(=O)O[C@H](/C(C)=C/[C@@H]3CC[C@@H](O)[C@H](OC)C3)[C@H](C)[C@@H](O)CC1=O)[C@H](C)C[C@@H]2OC [tacrolimus]
[1]; days 4.5 and 6.5 postcoitum
  uterine LIF protein expression (Western blot): induced LIF protein expression
[1]; pregnancy day 4.5
  maturation of uterodomes at implantation sites: inducing maturation of uterodomes
[2]; diabetes prone mice, FIG. 12
  anti-inflammatory cytokines IL-1ra, IL10 and IL2 in uteri: inhibition of some anti-inflammatory cytokines such as IL-1ra, IL10 and IL2
[2]; peri-implantation, FIG. 8
  cytokines involved in inflammation, T-cell cytotoxicity and blood coagulation: pan-inhibition of cytokines involved in inflammation, T-cell cytotoxicity and blood coagulation
[2]; peri-implantation, FIG. 9
  uterine expression of MCP1, MCP5, MIG9, RANTES, SDF-1, KC: significantly downregulated the uterine expression of six major IFN-γ-regulated inflammatory cytokines
[2]; short-term administration prior to mating, peri-implantation
  Th1-induced cytokines (IFN-γ, IL16, TNFα, IL12 family) in uteri: significant inhibition of the vast majority of Th1-induced cytokines
[2]; time of implantation, FIG. 7F
  IL12 family cytokines in uteri: downregulating members of IL12 family cytokines
[2]; time of implantation, FIG. 11
  IL5, IL7 and IL13 expression in uteri: restored normalized levels of IL5, IL7 and IL13 expression
[3]; near-term (Gd.16.5) pups
  rates of still births and malformations: reduced the rates of still births and malformations
[3]; treated diabetic and obese mice
  term pregnancy and live births: restored normal term pregnancy with high rate of live births
[4]; 0.1 mg/kg s.c. every other day, weeks 9-11 of age
  treated pregnant diabetic mice in which IUGR development was inhibited: 88%
[4]; day 18.5 of pregnancy, 0.1 mg/kg s.c. every other day, weeks 9-11 of age, p<0.05
  fetal body weight: significantly improved fetal body weight
[4]; short term administration
  pups born to diabetic dams rescued from inflammatory-mediated growth restriction: 88%
[5]
  weight loss: induced a significant weight loss
